Legend:
[1] = system: non-alcoholic fatty liver disease (NAFLD) model mice; test: Body weight, wet liver weight and liver index in high-sugar high-fat diet NAFLD model mice; format: in vivo, C57BL/6 mice; details: for Weight: high-sugar high-fat feed; for Weight / Wet liver weight: mean ± s, n=10
From the text: (§1) After 1 week of adaptive feeding, 44 C57 mice were divided into a control group (12 mice) and a model group (32 mice) according to the random number method. The normal control group was given ordinary diet, and the model group was given high-sugar and high-fat diet. After feeding for 8 weeks, randomly select 2 animals in each of the control group and the model group. After pathological examination confirmed that the modeling was successful, the model animals were divided into groups.
(§2) The model animals were divided according to random number method into 3 groups of 10 mice each, namely model control group (equal volume of sodium chloride injection solution), Trezastilbenoside high dose group (20 mg/kg) and Trezastilbenoside low dose group (10 mg/kg). The mice in each administration group were administered intragastrically with the corresponding drug, once a day continuously for 4 weeks, while being fed with the high-sugar and high-fat feed continuously. The mice in the normal control group (equal volume of sodium chloride injection solution) were feed with the ordinary feed.
After the last administration, the mice were fasted but had access to water for 12 h, and then sacrificed after blood was taken. The body mass and liver mass of each mouse were weighed to calculate the liver index by the following formula.
liver index=(liver wet mass/body mass)×100% (wet liver mass/body mass).

[2] = system: non-alcoholic fatty liver disease (NAFLD) model mice; test: Levels of serum TC, TG, HDL, LDL, AST and ALT in NAFLD model mice; format: in vivo, C57BL/6 mice; details: x ± s, n=10
From the text: as §1, §2
About 1 mL of blood, taken via mouse eyeballs, was placed into a 1.5 mL centrifuge tube, and then centrifuged at 3000 r/min for 10 min to obtain the supernatant. The levels of TC, TG, HDL, LDL, AST and ALT in the serum were measured with a microplate reader strictly under the operating instructions of the assay kit.

[3] = system: non-alcoholic fatty liver disease (NAFLD) model mice; test: TC and TG content in liver tissue of NAFLD model mice; format: in vivo, C57BL/6 mice
From the text: as §1, §2
About 100 mg of liver tissue weighed, was put into 900 μL absolute ethanol to make a 10% tissue homogenate under an ice bath. Then the supernatant was separated out through a centrifugation separation at 3000 r/min for 15 min, and collected into a 1.5 mL centrifuge tube for the measurement of TC and TG content in the liver tissue.

[4] = system: non-alcoholic fatty liver disease (NAFLD) model mice; test: Gross observation and HE staining of liver of NAFLD model mice; format: in vivo, C57BL/6 mice
From the text: as §1, §2
The fresh liver tissue was immersed and fixed in 4% formaldehyde solution overnight for 24 h, dehydrated through 75%-95%-100% ethanol gradient, embedded in paraffin, sectioned into 4 μm, and conventionally stained with hematoxylin-eosin, to observe the pathological changes of the liver tissue under an optical microscope (HE, 200×).

[5] = safety research mentioned in background; cited from earlier work
[6] = safety research mentioned in background; cited from earlier work; remark: listed apart in the source
[7] = high dose 20 mg/kg intragastric once a day for 4 weeks
[8] = low dose 10 mg/kg intragastric once a day for 4 weeks
[9] = high dose 20 mg/kg intragastric 4 weeks
[10] = low dose 10 mg/kg intragastric 4 weeks
[11] = HE, 200x, Trezastilbenoside group

In the case of `OC[C@H]1O[C@@H](Oc2cc(/C=C/c3cc(O)cc(O)c3)ccc2O)[C@H](O)[C@@H](O)[C@@H]1O` [Trezastilbenoside], the “Obesity induced by high sugar and high fat, compared with the model group” value ([1]; Trezastilbenoside administration group, 4 weeks intragastric) is reported as “has a tendency to reduce the obesity induced by high sugar and high fat in mice”, the “Weight” value [1, 7] is reported as 33.8 ± 0.74 g and the “Liver index (%)” value ([1]; high dose 20 mg/kg intragastric once a day for 4 weeks, liver wet mass/body mass x 100%) is reported as 0.51 ± 0.05 %. For the same compound, the “Wet liver weight” value [1, 7] was 1.72 ± 2.7 g, the “Weight” value [1, 8] was 35.0 ± 0.62 g and the “Wet liver weight” value [1, 8] was 1.84 ± 3.0 g. The “ALT (U/L)” value [2, 9] was 78.30 ± 11.53 U/L, the “AST (U/L)” value [2, 9] was 118.92 ± 10.75 U/L and the “HDL” value [2, 9] was 0.45 ± 0.16 mmol/L. The “LDL” value [2, 9] was 0.41 ± 0.30 mmol/L, the “TC” value [2, 9] was 3.43 ± 0.17 mmol/L and the “TG” value [2, 9] was 0.99 ± 0.11 mmol/L. For the same compound, the “ALT (U/L)” value [2, 10] was 122.45 ± 27.37 U/L, the “AST (U/L)” value [2, 10] was 147.73 ± 52.98 U/L and the “HDL” value [2, 10] was 0.27 ± 0.67 mmol/L. For the same compound, the “LDL” value [2, 10] was 0.47 ± 0.13 mmol/L, the “TC” value [2, 10] was 5.53 ± 0.52 mmol/L and the “TG” value [2, 10] was 2.67 ± 0.19 mmol/L. The “TC” value [3, 9] was 4.23 ± 0.87 mg/g, the “TG” value [3, 9] was 1.96 ± 0.99 mg/g and the “TC” value [3, 10] was 6.53 ± 0.59 mg/g. The “TG” value [3, 10] was 2.12 ± 0.58 mg/g, the “HE observation of mouse liver: fat droplets and pathological morphology, compared with the model group” value [4, 11] was “smaller and fewer, the pathological morphology of liver tissue was significantly improved” and the “HE observation of mouse liver: infiltration of inflammatory cells” value [4, 11] was “the infiltration of inflammatory cells was not obvious”. For the same compound, the “Gross observation of mouse liver: colour, texture and shape” value ([4]; low and high dose groups (10 and 20 mg/kg)) was “between the normal control group and the model group, and the texture and shape tended to be normal”, the “Toxic side reactions and death in acute toxicity tests” value [5] was “no toxic side reactions and death occurred” and the “Chromosome aberrations or mutagenesis in the genetic test” value [6] was “no chromosome aberrations or mutagenesis were found”.
